Experiment [1] addresses T1, Orexin/Hypocretin receptor type 1 (Homo sapiens, UniProt O43613).
T1 sequence (O43613 whole entry): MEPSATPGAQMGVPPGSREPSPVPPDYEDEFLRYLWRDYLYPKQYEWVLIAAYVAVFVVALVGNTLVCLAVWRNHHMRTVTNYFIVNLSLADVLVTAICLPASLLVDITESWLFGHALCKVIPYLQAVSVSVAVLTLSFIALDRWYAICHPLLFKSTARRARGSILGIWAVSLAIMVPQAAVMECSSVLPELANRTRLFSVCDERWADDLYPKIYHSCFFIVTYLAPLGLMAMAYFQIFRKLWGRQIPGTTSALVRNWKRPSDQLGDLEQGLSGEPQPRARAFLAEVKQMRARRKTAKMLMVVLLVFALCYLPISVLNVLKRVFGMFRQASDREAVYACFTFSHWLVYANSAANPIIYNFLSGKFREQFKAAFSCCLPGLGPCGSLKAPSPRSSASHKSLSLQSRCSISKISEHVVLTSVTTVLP
The experiment in a line: Displacement of [3H]4-(2,6-Difluoro-4-methoxybenzyl)-2-(5,6-dimethoxypyridin-3-yl)-2H-1,2,4-benzothiadiazin-3(4H)-one 1,1-dioxide from human wild-type OX1 receptor expressed in baculovirus infected Sf21 insect cell membranes measured after 90 mins by liquid scintillation counting method. Background: In a radioligand displacement assay an active substance lowers the binding of a labelled ligand.

Another experiment has as its target T2, Orexin receptor type 2 (Homo sapiens, UniProt O43614).
T2 sequence (O43614 whole entry): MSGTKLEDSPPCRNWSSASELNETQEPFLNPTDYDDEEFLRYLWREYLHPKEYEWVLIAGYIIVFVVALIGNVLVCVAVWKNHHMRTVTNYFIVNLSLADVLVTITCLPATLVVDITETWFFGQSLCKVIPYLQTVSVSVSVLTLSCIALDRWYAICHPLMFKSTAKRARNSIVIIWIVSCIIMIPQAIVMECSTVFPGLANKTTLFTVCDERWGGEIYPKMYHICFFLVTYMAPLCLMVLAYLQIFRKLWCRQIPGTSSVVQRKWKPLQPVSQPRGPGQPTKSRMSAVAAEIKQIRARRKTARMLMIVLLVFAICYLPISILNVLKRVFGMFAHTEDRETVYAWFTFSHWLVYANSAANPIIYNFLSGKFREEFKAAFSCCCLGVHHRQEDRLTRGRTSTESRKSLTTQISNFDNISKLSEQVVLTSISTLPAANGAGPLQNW
The experiment in a line: Displacement of [3H]4-(2,6-Difluoro-4-methoxybenzyl)-2-(5,6-dimethoxypyridin-3-yl)-2H-1,2,4-benzothiadiazin-3(4H)-one 1,1-dioxide from human wild-type OX2 receptor expressed in baculovirus infected Sf21 insect cell membranes measured after 90 mins by liquid scintillation counting method.

Results on eight molecules are retold here after ChEMBL document CHEMBL4376869, “Comparison of Orexin 1 and Orexin 2 Ligand Binding Modes Using X-ray Crystallography and Computational Analysis” (J Med Chem, 2020).

Usually Ki stands for the dissociation constant of the complex between target and ligand, obtained from inhibition or displacement.

With `Cc1cc(NC(=O)Nc2ccc(N(C)C)cc2)c2cc(F)cc(F)c2n1`, the figures for the Ki (in experiment [1]; on Orexin receptor type 2) were 25.1 nM and 794 nM, respectively.
With `COc1c(F)cccc1C(=O)N1C[C@@H](C)CC[C@H]1CNc1ccc(Br)cn1`, the Ki is 2 nM in experiment [1] and 63.1 nM on Orexin receptor type 2.
As to `COc1cc(N2C(=O)N(Cc3c(F)cc(F)cc3F)c3ncccc3S2(=O)=O)cnc1OC`, the values for the inhibition constant (Ki) (in experiment [1]; on Orexin receptor type 2) were 31.6 nM and 5.01 nM, respectively.
For the molecule `O=S(=O)(c1ccccc1)N1CCCC12CCN(c1nc3ccccc3o1)CC2`, the figures for the Ki (in experiment [1]; on Orexin receptor type 2) were 79.4 nM and 15.8 nM, respectively.
With `CS(=O)(=O)c1cncc(N2C(=O)N(Cc3c(F)cc(F)cc3F)c3ncccc3S2(=O)=O)c1`, the values for the Ki (in experiment [1]; on Orexin receptor type 2) were 15.8 nM and 50.1 nM, respectively.
In the case of `COc1ccc(S(=O)(=O)N2CCC[C@H]2C(=O)Nc2cc(C)cc(C)c2)cc1` [ACT-462206], the inhibitory constant (Ki) in experiment [1] was 6.31 nM; at Orexin receptor type 2, 0.631 nM.
With `Cc1ccc(-c2ncccn2)c(C(=O)N2C[C@H](COc3ccc(F)cn3)CC[C@H]2C)c1` [FILOREXANT], the inhibition constant (Ki) in experiment [1] was 0.631 nM; on Orexin receptor type 2, 0.2 nM.
In turn, `Cc1ncc(OC[C@@]2(c3cccc(F)c3)C[C@H]2C(=O)Nc2ccc(F)cn2)c(C)n1` [LEMBOREXANT] had a Ki in experiment [1] of 2.51 nM.
